Columns and labels:
CYP1A2 = target: T1, CYP1A2 (Homo sapiens, UniProt P05177); experiment: CYP450 enzyme activity inhibition assay, CYP1A2; format: in vitro ADME
T1 construct: co-incubated with human liver microsomes; from tissue; host or cells: human liver microsomes
T1 sequence (P05177 1-516): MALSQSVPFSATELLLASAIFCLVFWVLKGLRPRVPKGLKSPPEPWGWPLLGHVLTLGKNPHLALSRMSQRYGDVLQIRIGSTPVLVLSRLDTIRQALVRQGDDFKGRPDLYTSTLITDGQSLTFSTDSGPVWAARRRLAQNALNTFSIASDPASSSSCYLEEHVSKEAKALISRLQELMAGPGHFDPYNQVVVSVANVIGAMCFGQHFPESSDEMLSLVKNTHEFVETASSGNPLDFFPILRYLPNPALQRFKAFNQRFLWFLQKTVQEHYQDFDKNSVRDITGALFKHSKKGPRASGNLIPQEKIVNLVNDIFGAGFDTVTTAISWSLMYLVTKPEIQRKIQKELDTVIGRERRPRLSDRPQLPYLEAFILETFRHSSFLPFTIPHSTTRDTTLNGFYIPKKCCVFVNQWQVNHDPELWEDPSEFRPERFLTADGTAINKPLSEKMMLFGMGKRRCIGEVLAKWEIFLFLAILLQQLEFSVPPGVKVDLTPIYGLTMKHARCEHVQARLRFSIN
Experimental: (§1) The purpose of this study was to evaluate the effects of the test compounds on the activities of five isoenzymes (CYP1A2, CYP2C9, CYP2C19, CYP2D6, and CYP3A4) of human liver microsomal cytochrome P450 (CYP) using an in vitro testing system. The specific probe substrates for each CYP450 isoenzyme were co-incubated with human liver microsomes and the test compounds at different concentrations, and reduced nicotinamide adenine dinucleotide phosphate (NADPH) was added to initiate the reaction. After the reactions were completed, the samples were treated, and liquid chromatography-tandem mass spectrometry (LC-MS/MS) was used to quantitatively detect metabolites produced by the specific substrates. The changes in CYP enzyme activities were determined, and the IC50 values were calculated to evaluate the inhibitory potential of the test compounds against each CYP enzyme subtype.

[1] = target: T2, WRN protein (AA N517-P1238, ICE, Cat. S2212T-H56HZ) (Homo sapiens, UniProt Q14191); experiment: Assay for WRN helicase activity (FORKF dsDNA unwinding, fluorescence); format: biochemical; conditions: inhibition of WRN helicase activity; 10 nM WRN, 10 nM FORKF, 2 mM ATP
T2 construct: WRN protein (AA N517-P1238, ICE, Cat. S2212T-H56HZ); purchased ICE S2212T-H56HZ
T2 sequence (Q14191 517-1238, stated change not applied): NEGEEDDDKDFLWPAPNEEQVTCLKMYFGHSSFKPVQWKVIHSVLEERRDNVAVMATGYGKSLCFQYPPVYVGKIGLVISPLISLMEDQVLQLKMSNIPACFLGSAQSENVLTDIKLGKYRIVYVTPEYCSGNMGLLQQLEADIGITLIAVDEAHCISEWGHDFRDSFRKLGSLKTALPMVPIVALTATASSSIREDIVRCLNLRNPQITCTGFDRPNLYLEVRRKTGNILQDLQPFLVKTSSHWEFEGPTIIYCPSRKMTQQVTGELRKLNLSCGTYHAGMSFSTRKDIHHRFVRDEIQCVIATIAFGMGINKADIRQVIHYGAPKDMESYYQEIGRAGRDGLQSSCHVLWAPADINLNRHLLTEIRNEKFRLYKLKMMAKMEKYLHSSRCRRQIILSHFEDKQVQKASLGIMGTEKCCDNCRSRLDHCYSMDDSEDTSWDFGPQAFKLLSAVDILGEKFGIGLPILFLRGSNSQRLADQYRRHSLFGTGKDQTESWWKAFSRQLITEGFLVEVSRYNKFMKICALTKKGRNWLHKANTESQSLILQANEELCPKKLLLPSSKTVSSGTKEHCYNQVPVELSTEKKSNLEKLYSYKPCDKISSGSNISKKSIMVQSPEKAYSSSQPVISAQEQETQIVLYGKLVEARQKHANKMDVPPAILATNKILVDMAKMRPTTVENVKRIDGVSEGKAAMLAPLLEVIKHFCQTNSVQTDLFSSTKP
Experimental: The assay buffer working solution prepared with RNAase-free water was as follows: 25 mM Tris (pH 7.5), 2 mM MgCl2, 50 mM NaCl, 0.02% BSA, 0.01% Tween, and 1 mM DTT. WRN protein (AA N517-P1238, ICE, Cat. S2212T-H56HZ) was obtained through protein expression and purification in vitro. Two single-stranded DNAs were synthesized: […]-BHQ2 (quencher), and (fluorophore) TAMRA-[…]. dsDNA (FORKF) was obtained via annealing of the two single-stranded DNAs. When the WRN protein bound to FORKF, the dsDNA was unwound, exposing the fluorophore, thereby generating fluorescence. 2 µL of compounds at different concentrations and 4 µL of WRN protein were added to a 384-well black plate (Greiner, Cat#784075). The plate was pre-incubated at room temperature for 20 minutes. 2 µL each of ATP and the FORKF substrate were added. The working concentrations of the WRN protein, FORKF, and ATP were 10 nM, 10 nM, and 2 mM, respectively. The plate was incubated at room temperature for 20 minutes. After the incubation was completed, the fluorescence value was read at Ex 540 nm/Em 590 nm using a BMG microplate reader (PHERAstar FSX).
The inhibition rate was calculated according to Formula 2, where RLUsample is the readout of the compound well, RLUmax is the readout of the DMSO control well, and RLUmin is the readout of the control well without the WRN protein. Curve fitting was performed via a four-parameter logistic model using GraphPad Prism software, and the IC50 value (the concentration of the compound when the inhibition rate was 50%) was calculated. Inhibition% = (1−(RLUsample−RLUmin)/(RLUmax−RLUmin)) × 100% [formula] Table 2. Results of inhibitory activity of test compounds against WRN helicase activity

SW48 cells = experiment: SW48 cell proliferation inhibition assay (CellTiter-Glo); format: cell-based; conditions: Homo sapiens, 96 h, 4 days, read-out: Inhibitory activity against SW48 cell proliferation IC50
Experimental: The culture conditions for SW48 cells were as follows: Leibovitz L15 + 10% FBS + 1% penicillin-streptomycin, and the cells were cultured in an incubator without CO2 at 37°C. On the first day, the SW48 cells in the exponential growth phase were collected and plated in 96-well cell culture plates at a density of 1000 cells/well (180 µL/well). The plates were cultured overnight in an incubator without CO2 at 37°C. T0 wells were plated simultaneously during the plating process. The next day, 20 µL of compounds at different concentrations were added to each well (nine compound concentration gradients, one DMSO well, and one blank well; each compound concentration was plated in triplicate), and the final concentration of DMSO in each well was 0.1%. The plates were cultured in an incubator without CO2 at 37°C for 4 days. On the same day of compound addition, the T0 plate was detected using the CellTiter-Glo Kit, and the detected value was recorded as RLU0. After the culture was completed, 100 µL of detection solution (Cell Viability Assay, Promega) was added to each well. The plates were incubated at room temperature for 10 minutes with slow shaking. The chemiluminescence reading was read using a BMG microplate reader (PHERAstar FSX). The results were processed according to Formula (5) to calculate the proliferation inhibition rate of compounds at each concentration. Curve fitting was performed via a four-parameter logistic model using GraphPad Prism software, and the GI50 value (the concentration of the compound when the proliferation inhibition rate was 50%) was calculated. In the formula, RLUcompound is the readout of the drug-treated group, RLUcontrol is the average value of the compound vehicle control group, and RLUBlank is the average value of the blank control group. [formula] Table 3. Results of inhibitory activity of test compounds against cell proliferation

CYP3A4 = target: T3, CYP3A4 (Homo sapiens, UniProt P08684); experiment: CYP450 enzyme activity inhibition assay, CYP3A4; format: in vitro ADME
T3 construct: co-incubated with human liver microsomes; from tissue; host or cells: human liver microsomes
T3 sequence (P08684 whole entry): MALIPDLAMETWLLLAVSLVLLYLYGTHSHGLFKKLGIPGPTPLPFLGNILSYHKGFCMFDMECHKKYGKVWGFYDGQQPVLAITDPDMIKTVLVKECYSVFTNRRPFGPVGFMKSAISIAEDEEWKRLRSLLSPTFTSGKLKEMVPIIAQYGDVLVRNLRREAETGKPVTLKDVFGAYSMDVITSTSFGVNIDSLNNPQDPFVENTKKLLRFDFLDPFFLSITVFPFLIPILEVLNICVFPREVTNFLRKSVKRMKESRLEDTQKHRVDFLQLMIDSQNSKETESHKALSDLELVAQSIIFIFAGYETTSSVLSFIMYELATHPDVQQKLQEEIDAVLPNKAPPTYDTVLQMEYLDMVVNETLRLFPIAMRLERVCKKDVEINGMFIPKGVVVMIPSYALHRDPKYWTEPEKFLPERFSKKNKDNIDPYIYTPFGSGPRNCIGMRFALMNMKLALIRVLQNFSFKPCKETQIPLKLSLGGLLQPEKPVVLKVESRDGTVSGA
Experimental: as §1

Row | SMILES | IC50 (CYP1A2) | IC50 [1] | IC50 (SW48 cells) | IC50 (CYP3A4)
1 | Cc1ncnc(C(=O)N2CCN(c3c4n(c5nc(C6=CCOCC6)nn5c3=O)[C@@H](C(=O)Nc3ccc(C(F)(F)F)cc3Cl)CCC4)CC2)c1O [Compound 1-B] | > 30 µM | < 0.02 µM | < 0.1 µM | > 30 µM
2 | Cc1ncnc(C(=O)N2CCN(c3c4n(c5nc(C6=CCOCC6)nn5c3=O)C(C(=O)Nc3ccc(C(F)(F)F)cc3Cl)CCC4)C[C@H]2C)c1O (single isomer, unassigned) [Compound 8-B] | > 30 µM | < 0.02 µM | < 0.1 µM | > 30 µM
3 | Cc1ncnc(C(=O)N2[C@@H](C)CN(c3c4n(c5nc(C6=CCOCC6)nn5c3=O)[C@@H](C(=O)Nc3ccc(C(F)(F)F)cc3Cl)CCC4)C[C@@H]2C)c1O [Compound 20-A] | > 30 µM | < 0.02 µM | < 0.1 µM | > 30 µM
